{
  "source": "patent US20250090622A1",
  "about": "“ANGIOTENSIN COMPOSITIONS AND METHODS RELATED THERETO” (LA JOLLA PHARMA, LLC, priority 2017, published 2025)",
  "key": {"[1]": {"tested_on": "hypotension in distributive shock", "assay": "clinical study of angiotensin II in treating hypotension in distributive shock", "format": "in vivo, human", "settings": "95% CI 4.76 to 13.3; P<0.001", "method": "Vials containing 2 milliliters of 2.5 mg/mL (mg) angiotensin II in 0.9% saline and 25 mg/mL mannitol were evaluated in a clinical study of angiotensin II in treating hypotension in distributive shock (Khanna et al., N Engl J Med 2017; 377:419-430). Patients were currently on other vasopressors but still hypotensive (mean arterial pressure (MAP)[…]65 mmHg). Administration of angiotensin II was begun at a rate of 20 ng/kg/min, and titrated up or down to achieve and maintain an increased MAP of 10 mmHg above baseline or at least 75 mmHg. For the first 3 hours of treatment, the other vasopressors were held constant and the maximum dose allowed of angiotensin II was 200 ng/kg/min. At 3 hours and 15 minutes, all vasopressors could be titrated to maintain a MAP between 65-75 mmHg and an angiotensin II rate of 1.25-40 ng/kg/min. Angiotensin II could be administered for up to 7 days in this study. In this study, about 1 vial of drug (5 mg) was sufficient to treat each patient for a 24-hour period, and patients were on the treatment for an average of 2 days. Most patients required at least 1 mg of drug per day.\nA total of 344 patients were assigned to one of the two regimens; 321 received a study intervention (163 received angiotensin II, and 158 received placebo) and were included in the analysis."}, "[2]": {"tested_on": "sepsis-induced hypotension", "settings": "porcine fecal peritonitis septic shock; hemodynamic effects similar to norepinephrine; cited from earlier work"}, "[3]": {"tested_on": "blood pressure", "settings": "intravenous dosing, rats; cited from earlier work"}, "[4]": {"tested_on": "blood pressure", "settings": "intravenous dosing, dogs; cited from earlier work"}, "[5]": {"tested_on": "blood pressure", "settings": "intravenous dosing, rabbits; cited from earlier work"}},
  "note": "Where two headings read alike, the source gives them in different places.",
  "data": [
    {"molecule": "CC[C@H](C)[C@H](NC(=O)[C@H](Cc1ccc(O)cc1)NC(=O)[C@@H](NC(=O)[C@H](CCCNC(=N)N)NC(=O)[C@@H](N)CC(=O)O)C(C)C)C(=O)N[C@@H](Cc1c[nH]cn1)C(=O)N1CCC[C@H]1C(=O)N[C@@H](Cc1ccccc1)C(=O)O", "note": "[angiotensin II, H-Asp-Arg-Val-Try-Ile-His-Pro-Phe-OH]", "values": [
      {"measurement": "odds ratio for primary end point, angiotensin II vs placebo", "setting": "[1]", "result": 7.95},
      {"measurement": "effect on sepsis-induced hypotension", "setting": "[2]", "result": "reversed sepsis-induced hypotension"},
      {"measurement": "effect on blood pressure", "setting": "[3]", "result": "increase in blood pressure"},
      {"measurement": "effect on blood pressure", "setting": "[4]", "result": "increase in blood pressure"},
      {"measurement": "effect on blood pressure", "setting": "[5]", "result": "increase in blood pressure"}
    ]}
  ]
}
